From patent publication US20140050778A1, “NUCLEIC ACID BINDING COMPOUNDS, METHODS OF MAKING, AND USE THEREOF” (UNIVERSITY OF ROCHESTER, priority 2010, published 2014)
“Also recorded” adds a separate entry of the source.

How the values were obtained:
[1] = tested on: mouse C2C12 myoblasts; experiment: Cell permeability by fluorescence microscopy; assay type: cell-based; conditions: 12 h, 125 μM, intrinsic fluorescence
Method: For cell permeability studies, human fibroblasts or mouse myoblasts grown to 80% confluence were exposed to compounds for 12 hours in a 96 well tissue culture plate. After removal of the culture media (DMEM, with 10% FBS, 1% pen-strep (GIBCO)) the cells were washed twice with PBS to remove excess compounds. Cells were then imaged while in buffer under a fluorescence microscope (Olympus IX70) in the 96-well plate using a 460 nm emission filter.

[2] = tested on: pseudotyped HIV; experiment: Pseudotyped HIV assay (HEK293T producer cells, p24 ELISA, HeLa LTR-luciferase); assay type: cell-based, HIV-1; conditions: 500 nM, single dose experiments
Method: Initial experiments were conducted to ascertain if compound 14 (designated as compound 5-5 Z in PCT Publ. […]. After transfection, cells were incubated with compound for 20 hours. Viruses produced in untreated and treated cells were recovered from the media and viral titers were assessed using a p24 ELISA assay as described previously by Miller et al., “The Dimerization Domain of HIV-1 Viral Infectivity Factor Vif is Required to Block Virion Incorporation of APOBEC3G,” Retrovirology 4:81 (2007), which is hereby incorporated by reference in its entirety. The same number of virus from control and compound-treated cells were used to infect a HeLa cell line expressing luciferase under the control of an LTR promoter (Platt et al., “Effects of CCRS and CD4 Cell Surface Concentrations on Infections by Macrophagetropic Isolates of Human Immunodeficiency Virus Type 1,” J. Virol. 72:2855-2864 (1998), which is hereby incorporated by reference in its entirety). Viral infectivity was quantified in microtiter well format based on the luciferase signals. […]
This experiment was repeated using a dose-response study to assess the efficacy of compound 18. […] Actin concentration (as measured by Western blot) was used to correct viral titers for any subtle variation in cell number, and to confirm that the observed effect is specific to virus production and not to off-target effects. […]

[3] = biological target: (CUG)10 RNA (SEQ ID NO: 3); experiment: SPR binding to immobilized biotinylated RNA; conditions: SPR, (CUG)10
Method: SPR binding measurements were performed on a Biacore-X instrument (Biacore, Inc., Uppsala, Sweden) with two flow channels (FC1 and FC2). 5′-Biotinylated-RNA sequences, with a C6 linker separating the biotin label from the RNA (Integrated DNA Technologies Inc.) were immobilized on streptavidin (Rockland Immunochemicals) functionalized carboxylmethyl dextran coated sensor chips (CM5, G.E. Healthcare) using EDC/NHS (Advanced ChemTech) coupling chemistry. Filtered (0.2μ), degassed and autoclaved HBS-N buffer (0.01M Hepes, pH=7.4, 0.15 M NaCl) was employed as sample and as running buffer for all SPR experiments. A typical protocol for an experiment is as follows: A CM5 sensor chip was allowed to equilibrate to room temperature and then docked into the instrument. Following priming with running buffer, FC1 and FC2 were conditioned by manual injection of 20 μL aqueous NaOH (50 mM) at a flow rate of 30 μL/min. This was repeated 3 times followed by a wash command. Next, the carboxyl groups on the sensor chip surface in both flow cells were activated separately by injecting 60 μL of freshly prepared 1:1 mixture of EDC (0.4 M) and NHS (0.1 M) at a 5 μL/min flow rate followed by a wash. […] After washing, the surface was deactivated with 60 μL injection of ethanolamine (1M, pH=8.5) at 5 μL/min. The flow cells were primed, and the streptavidin surface in FC1 alone was blocked with 30 μL of biotin (20 μM in HBS-N) at 5 μL/min. The RNA (200 nM in running buffer, HBS-N) to be immobilized was unfolded by heating above its predicted melting temperature in a heated block for 2 min and then allowed to refold by cooling gradually to room temperature. The RNA was then immobilized in FC2 alone to response units ranging from 200-1000 RU using a 5 μL/min flow rate. Representative sensorgrams for the immobilization procedure is shown in FIGS. 2A-B. Two 20 μL aliquots of NaCl (0.5 M) were injected at a 30 μL/min flow rate to remove non-specifically bound RNA. The level of RNA immobilized was noted when the baseline was stable, usually after repeated buffer injection followed by a “prime” command. Binding measurements were performed by flowing various concentrations of the compounds to be analyzed over the immobilized RNA and recording the reference-subtracted (FC2−FC1) sensorgrams. For kinetic analysis, at least five sensorgrams corresponding to different concentrations of compound (usually ranging from 0.05-1 μM in HBS-N) were obtained using flow rates of either 60 μL/min or 30 μL/min. The experimental sensorgrams were globally fitted to a 1:1 binding equation (Biaevaluation software) to obtain association rates (ka) and dissociation rates ([…]) as well as equilibrium binding constants (KD). To measure the binding stoichiometry (n), the relations in equations (1-3) below were used: […]
where RUmax is the maximum resonance response unit at saturation, RURNA is the amount RU of RNA immobilized, n is the stoichiometry, MWcompound and MWRNA are molecular weights of compound and RNA respectively, and RUeq represents the resonance response at steady-state (equilibrium). The response units at equilibrium were subjected to Scatchard binding plots of (r/Cfree vs. r).
This technique allows the association and dissociation rates (ka and kd), equilibrium binding constants (KD), and the binding stoichiometry (n) to be measured in a label-free format (Liu and Wilson, “Quantitative Analysis of Small Molecule-nucleic Acid Interactions with a Biosensor Surface and Surface Plasmon Resonance Detection,” Methods Mol. Biol. 613:1-23 (2010), which is hereby incorporated by reference in its entirety).

[4] = tested on: human fibroblasts; experiment: MTT toxicity assay; assay type: cell-based; conditions: single substance, concentrations up to 500 μM
Method: (§1) For toxicity studies, mouse myoblasts or human fibroblasts were plated in a 96-well tissue culture plate in DMEM (10% fetal bovine serum, 100 units/ml penicillin, […]) and allowed to grow to approximately 80% confluence at 37° C. under CO2. Varying compound concentrations (up to 1 mM) were incubated with cells (48 hours, 37° C.). Media was then removed, and 3-(4,5-dimethylthiazol-2-yl)-2,5-diphenyltetrazolium bromide (“MTT”) in media was added to each well and incubated at 37° C. for 4 h. After removal of the MTT media, isopropanol (100 pp was added, and absorbance was measured at 600 nm on a Modulus microplate reader (Turner Biosystems).
SPR and fluorescence titration experiments, performed using the protocol described in Examples 3 and 4 above, except using as the target a highly conserved RNA sequence responsible for regulating the production of the Gag-Pol polyprotein via a −1 ribosomal frameshift, which occurs along a “slippery sequence” in gag-pol mRNA (SEQ ID NO: 7). This “frameshift stimulatory sequence” (or “HIV-1 FSS”) consists of an upper stemloop and a lower stem, separated by a purine bulge in the most common types of HIV (FIG. 19). For the fluorescent titration experiments, the upper stemloop of SEQ ID NO: 7 was employed. Cell uptake and toxicity studies were carried out using human fibroblasts according to Example 5 above.

[5] = tested on: human fibroblasts / mouse myoblasts; experiment: MTT toxicity assay, comparison drugs (FIGS. 13A-B); assay type: cell-based
Method: as §1

| SMILES | cell membrane penetration / localization [1] | decrease in viral titer relative to null control [2] | apparent KD [3] | toxicity (MTT) [4] | toxicity (MTT) [5] |
| --- | --- | --- | --- | --- | --- |
| CCc1nc2cc3ccccc3cc2cc1C(=O)O [Compound 2, 2-ethylbenzo[g]quinoline-3-carboxylic acid] | only a modest ability to enter cells; also recorded: not internalized by cells | no effect | complete lack of binding | no toxicity |  |
| COc1cccc2c1C(=O)c1c(O)c3c(c(O)c1C2=O)C[C@@](O)(C(C)=O)C[C@@H]3O[C@H]1C[C@H](N)[C@H](O)[C@H](C)O1 [daunorubicin] |  |  |  |  | significant toxicity at all concentrations tested |
